Reference: the RepoRT retention time repository (doi:10.1021/acs.analchem.2c02893)

Assay: RP, Thermo Scientific Acclaim RSLC 120 C18, 100 × 2.1 mm, 2.2 µm, 30 °C, 0.2 mL/min, estimated dead time 1.1 min; A: 90% water + 10% methanol + 0.01% formic acid + 5 mM ammonium formate, pH 3.61; B: methanol + 0.01% formic acid + 5 mM ammonium formate, pH 3.61; gradient (min/%B) 0/1 1/1 2/39 13/99.9 15/99.9 15.1/1 20.1/1
Settings: stereoisomer not certain

Row | SMILES | LC retention time
1 | NS(=O)(=O)c1cc2c(cc1C(F)(F)F)NC(Cc1ccccc1)NS2(=O)=O (centres undefined) [Bendroflumethiazide] | 6.82 min
2 | CC1=C(C(=O)O)N2C(=O)C(NC(=O)C(N)c3ccccc3)C2SC1 (centres undefined) [Cefalexin] | 4.08 min
3 | CCC(CO)NC(=O)C1C=C2c3cccc4[nH]cc(c34)CC2N(C)C1 (centres undefined) [Ergometrine-Methyl] | 4.34 min
4 | CC1(C)C(C(=O)c2cn(CCCC(F)(F)F)c3ccccc23)C1(C)C [XLR-12] | 12 min
5 | CN1C2CCC1CC(OC(=O)C(O)c1ccccc1)C2 (centres undefined) [Homatropine] | 3.73 min
6 | Nc1ccc(S(=O)(=O)Nc2ncccn2)cc1 [Sulfadiazine] | 3.48 min
7 | COC(=O)c1ccccc1S(=O)(=O)NC(=O)Nc1nc(C)cc(C)n1 [Sulfometuron-methyl] | 6.92 min
8 | O=C1OCC(O)=C1Cc1ccccc1 [Benzyltetronic acid (2-)] | 5.06 min
9 | CN(C)CCN1C(=O)c2ccccc2Nc2cc(Cl)ccc21 [Clobenzepam] | 6.32 min
10 | OC(c1ccc(F)cc1)(c1cncnc1)c1ccccc1Cl (centres undefined) [Nuarimol] | 9.17 min
11 | Cc1ccn2nc(S(=O)(=O)Nc3c(F)cccc3F)nc2n1 [Flumetsulam] | 4.83 min
12 | Cc1ccc(NC(=O)NC(C)(C)c2ccccc2)cc1 [Daimuron (Dymron)] | 9.68 min
13 | CS(=O)(=O)NC(=O)c1cc(Oc2ccc(C(F)(F)F)cc2Cl)ccc1[N+](=O)[O-] [Fomesafen] | 9.01 min
14 | Cc1c(N)c(=O)n(-c2ccccc2)n1C [Antipyrine-4-Amino (4-AAP)] | 4.69 min
15 | COc1ccc2c3c1OC1C(OC(C)=O)=CCC4C(C2)N(C)CCC314 (centres undefined) [Thebacon] | 4.47 min
16 | CCN(CC)C(=O)C1C=C2c3cccc4[nH]cc(c34)CC2NC1 (centres undefined) [LSD-Nor] | 5.56 min
17 | O=C1CN=C(c2ccccc2Cl)c2cc([N+](=O)[O-])ccc2N1 [Clonazepam] | 7.61 min
18 | O=C(NC(CO)C(O)c1ccc([N+](=O)[O-])cc1)C(Cl)Cl (centres undefined) [CAF-3] | 12.7 min
19 | CC(C)(C)C(NC(=O)c1nn(CC2CCCCC2)c2ccccc12)C(N)=O (centres undefined) [MAB-CHMINACA] | 11.8 min
20 | CCC(C)(C)C(=O)OC1CC(C)C=C2C=CC(C)C(CCC3CC(O)CC(=O)O3)C21 (centres undefined) [Simvastatin] | 12.6 min
21 | CCc1cc(OC)c(CCN)cc1OC [2C-E] | 6.48 min

Row | SMILES | LC retention time
22 | CCSC(=O)N(CC(C)C)CC(C)C [Butylate] | 12 min
23 | CC(C(=O)c1ccccc1)N(C)C (centres undefined) [Cathinone-Dimethyl] | 3.64 min
24 | COc1cc(OC)nc(NC(=O)NS(=O)(=O)c2ncccc2OCC(F)(F)F)n1 [Trifloxysulfuron] | 8.11 min
25 | OCCOCCN1CCN(C2=Nc3ccc(O)cc3Sc3ccccc32)CC1 [Quetiapine-Hydroxy] | 4.99 min
26 | Cc1ccc(C2(O)CCN(CCCC(=O)c3ccc(F)cc3)CC2)cc1 [Moperone] | 6.59 min
27 | Cc1cc(C)cc(C(=O)N(NC(=O)c2ccc3c(c2C)CCCO3)C(C)(C)C)c1 [Chromafenozide] | 9.93 min
28 | CCc1cccc(C)c1N(C(=O)CCl)C(C)COC (centres undefined) [Metolachlor] | 10.3 min
29 | COC1CC(OC2C(C)OC(OC3C(C)=CCC4CC(CC5(CCC(C)C(C(C)C)O5)O4)OC(=O)C4C=C(C)C(O)C5OCC(=CC=CC3C)C45O)CC2OC)OC(C)C1O (centres undefined) [Ivermectin B1b] | 14.2 min
30 | Cn1cc[nH]c1=S [Methimazole] | 2.61 min
31 | CC(C)C(N)C(=O)OCC(CO)OCn1cnc2c(=O)[nH]c(N)nc21 (centres undefined) [Valganciclovir] | 2.71 min
32 | CCn1cc(C(=O)O)c(=O)c2cc(F)c(N3CCNCC3)cc21 [Norfloxacin] | 4.46 min
33 | CCSCCSP(=S)(OC)OC [Thiometon] | 10.2 min
34 | CCN(CC)C(=O)c1cccc(C)c1 [DEET (Diethyltoluamide)] | 8.2 min
35 | COP(=S)(OC)Oc1ccc([N+](=O)[O-])c(C)c1 [Fenitrothion] | 9.92 min
36 | CC(C)(C)NCC(O)COc1ccccc1C1CCCC1 (centres undefined) [Penbutolol] | 9.01 min
37 | CCSc1ccc2c(c1)N(CCCN1CCN(C)CC1)c1ccccc1S2 [Thiethylperazine] | 10.4 min
38 | C[N+]1(C)C2CC(OC(=O)C(CO)c3ccccc3)CC1C1OC12 (centres undefined) [Scopolamine-Methyl] | 3.88 min
39 | CCOC(=O)C(CCc1ccccc1)NC(C)C(=O)N1CC2(CC1C(=O)O)SCCS2 (centres undefined) [Spirapril] | 8.23 min
40 | CCN(CC)CCOC(=O)C(c1ccccc1)C1CCCCC1 (centres undefined) [Drofenine] | 9.19 min
41 | CN1C(=O)C(O)N=C(c2ccccc2Cl)c2cc(Cl)ccc21 (centres undefined) [Lormetazepam] | 8.61 min
42 | CC(CS)C(=O)N1CCCC1C(=O)O (centres undefined) [Captopril] | 4.59 min

Row | SMILES | LC retention time
43 | CC(C)C1(C)N=C(c2nc3ccccc3cc2C(=O)O)NC1=O (centres undefined) [Imazaquin] | 6.1 min
44 | COP(=S)(Oc1cc(Cl)c(Br)cc1Cl)c1ccccc1 (centres undefined) [Leptophos] | 13.8 min
45 | CNC(=O)Oc1cc(C)cc(C)c1 [XMC (Group of peaks!)] | 7.78 min
46 | CCCSP(=S)(OCC)Oc1ccc(SC)cc1 (centres undefined) [Sulprofos (Bolstar)] | 12.8 min
47 | NS(=O)(=O)c1ccc(N2CCCCS2(=O)=O)cc1 [Sulthiame] | 4.11 min
48 | CC(C)(C)NCC(O)c1cc(Cl)c(N)c(C(F)(F)F)c1 (centres undefined) [Mabuterol] | 5.28 min
49 | O=S(=O)(O)NC1CCCCC1 [Cyclamic acid] | 6.99 min
50 | CCOP(=S)(Oc1ccc([N+](=O)[O-])cc1)c1ccccc1 (centres undefined) [EPN] | 11.7 min
51 | CCOc1ccccc1OC(c1ccccc1)C1CNCCO1 (centres undefined) [Reboxetine] | 7.28 min
52 | CC(C)c1ccc(NC(=O)N(C)C)cc1 [Isoproturon] | 8.32 min
53 | CN(C)C(=S)SSC(=S)N(C)C [Thiram (Tetramethylthiuramdisulfide.TMTD)] | 6.8 min
54 | COC(=O)Nc1nc2ccccc2[nH]1 [Carbendazim] | 5.46 min
55 | CCOP(=S)(OCC)Oc1ccc(Cl)cc1Cl [Dichlofenthion] | 12.6 min
56 | CN1C(=O)CN=C(C2=CCCCC2)c2cc(Cl)ccc21 [Tetrazepam] | 10.5 min
57 | CCOP(=O)(SC(C)CC)N1CCSC1=O (centres undefined) [Fosthiazate] | 7.73 min
58 | C=CC1(C)OC(=O)N(c2cc(Cl)cc(Cl)c2)C1=O (centres undefined) [Vinclozolin] | 10.6 min
59 | Cn1c(=O)c2c(ncn2CCO)n(C)c1=O [Etofylline] | 4.09 min
60 | CCOP(=S)(OCC)Oc1ccc(S(C)(=O)=O)cc1 [Fensulfothion-sulfon] | 8.48 min
61 | CC12CCC3c4cc(O)c(O)cc4CCC3C1CCC2=O (centres undefined) | 8.56 min
62 | OC(c1cc(C(F)(F)F)nc2c(C(F)(F)F)cccc12)C1CCCCN1 (centres undefined) [Mefloquine] | 8.59 min
63 | CC(C)=CCN1CCC2(C)c3cc(O)ccc3CC1C2C (centres undefined) [Pentazocine] | 5.46 min

Row | SMILES | LC retention time
64 | CNC(=O)Oc1cc(C)c(S(C)=O)c(C)c1 (centres undefined) [Methiocarb-sulfoxide] | 4.86 min
65 | CCCc1nn(C)c2c(=O)[nH]c(-c3cc(C(=O)CCl)ccc3OCC)nc12 [Chlorodenafil] | 10.2 min
66 | CNC(CC(C)C)C(=O)NC1C(=O)NC(CC(N)=O)C(=O)NC2C(=O)NC3C(=O)NC(C(=O)NC(C(=O)O)c4cc(O)cc(O)c4-c4cc3ccc4O)C(O)c3ccc(c(Cl)c3)Oc3cc2cc(c3OC2OC(CO)C(O)C(O)C2OC2CC(C)(N)C(O)C(C)O2)Oc2ccc(cc2Cl)C1O (centres undefined) [Vancomycin] | 3.26 min
67 | CCOP(=S)(OCC)SCn1nnc2ccccc2c1=O [Azinphos-ethyl] | 10.2 min
68 | CC(C)(C)NCC(O)COc1ccccc1C#N (centres undefined) [Bunitrolol] | 4.66 min
69 | Cc1ccc(N=Nc2c(O)ccc3ccccc23)c(C)c1 [Sudan II] | 14.9 min
70 | NN1CC(=O)N2C(Cc3c([nH]c4ccccc34)C2c2ccc3c(c2)OCO3)C1=O (centres undefined) [Tadalafil-Amino] | 7.84 min
71 | O=C(O)c1cccnc1Nc1cccc(C(F)(F)F)c1 [Niflumic acid] | 9.86 min
72 | COc1cc(C(=O)OCCCN(C)CCN(C)CCCOC(=O)c2cc(OC)c(OC)c(OC)c2)cc(OC)c1OC [Hexobendine] | 7.54 min
73 | CCc1nn(CCCN2CCN(c3cccc(Cl)c3)CC2)c(=O)n1CCOc1ccccc1 [Nefazodone] | 9.95 min
74 | Cc1ccc(NC(=O)N(C)C)cc1Cl [Chlorotoluron] | 7.98 min
75 | CCc1c(C)[nH]c2c1C(=O)C(CN1CCOCC1)CC2 (centres undefined) [Molindone] | 4.89 min
76 | CCCC(C)C(=O)Nc1ccc(C)c(Cl)c1 (centres undefined) [Pentanochlor] | 10.6 min
77 | CNC(=C[N+](=O)[O-])NCCSCc1ccc(CN(C)C)o1 [Ranitidine] | 3.14 min
78 | CCN(CCO)CCCC(C)Nc1ccnc2cc(Cl)ccc12 (centres undefined) [Chloroquine-Hydroxy] | 3.98 min
79 | CN(C)CCC=C1c2ccccc2C=Cc2ccccc21 [Cyclobenzaprine] | 7.95 min
80 | CCOc1nc2cccc(C(=O)OC(C)OC(=O)OC3CCCCC3)c2n1Cc1ccc(-c2ccccc2-c2nn[nH]n2)cc1 (centres undefined) [Candesartan cilexetil] | 12.2 min
81 | CNC(C)C(=O)c1ccc2c(c1)OCO2 (centres undefined) [Methylone (MDMC)] | 3.81 min
82 | CC(C)(C)CC(C)(C)c1ccc(OCCOCC[N+](C)(C)Cc2ccccc2)cc1 [Benzethonium] | 11.6 min
83 | CCOP(=S)(OCC)SC1OCCOC1SP(=S)(OCC)OCC (centres undefined) [Dioxathion] | 12.1 min
84 | CCOC(=O)Nc1cccc(OC(=O)Nc2ccccc2)c1 [Medipham-Desmethyl (desmedipham)] | 8.57 min
